In ChEMBL document CHEMBL2331278, “Synthesis, pharmacological evaluation and QSAR modeling of mono-substituted 4-phenylpiperidines and 4-phenylpiperazines” (Eur J Med Chem, 2013):

Experiments:
[1] = tested on: Rattus norvegicus; test: Reduction in DOPAC level in Sprague-Dawley rat striatum at 100 umol/kg, sc measured after 1 hr relative to control; format: functional
[2] = biological target: D(2) dopamine receptor (Homo sapiens, UniProt P14416); test: Displacement of [3H]7-OH-DPAT from human D2S receptor high affinity site expressed in HEK293 cells; format: cell-based
[3] = biological target: T1, Amine oxidase [flavin-containing] A (Rattus norvegicus, UniProt P21396); test: Displacement of [3H]Ro 41-1049 from rat MAO-A receptor expressed in HEK293 cells; format: cell-based
T1 sequence (P21396 whole entry): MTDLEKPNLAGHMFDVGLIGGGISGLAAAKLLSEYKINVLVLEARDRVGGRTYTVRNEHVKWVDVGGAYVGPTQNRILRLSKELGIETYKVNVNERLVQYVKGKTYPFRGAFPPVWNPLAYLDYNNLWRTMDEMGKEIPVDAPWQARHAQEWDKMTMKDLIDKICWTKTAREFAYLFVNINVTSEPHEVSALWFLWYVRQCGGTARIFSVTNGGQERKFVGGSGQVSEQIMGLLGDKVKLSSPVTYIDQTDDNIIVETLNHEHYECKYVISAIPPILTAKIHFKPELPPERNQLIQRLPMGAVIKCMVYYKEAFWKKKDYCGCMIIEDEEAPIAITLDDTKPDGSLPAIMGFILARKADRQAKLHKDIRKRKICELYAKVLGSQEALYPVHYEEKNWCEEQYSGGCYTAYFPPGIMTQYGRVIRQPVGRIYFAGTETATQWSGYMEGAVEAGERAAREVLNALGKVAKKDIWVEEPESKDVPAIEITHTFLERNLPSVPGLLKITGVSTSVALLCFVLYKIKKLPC

[4] = tested on: Rattus norvegicus; test: Reduction in DOPAC level in Sprague-Dawley rat striatum at 33 umol/kg, sc measured after 1 hr relative to control; format: functional; set-up: scale not given: the % may be the effect or the level left
[5] = tested on: Rattus norvegicus; test: Reduction in DOPAC level in Sprague-Dawley rat striatum at 50 umol/kg, sc measured after 1 hr relative to control; format: functional; set-up: scale not given: the % may be the effect or the level left

Sequence of D(2) dopamine receptor (P14416 whole entry): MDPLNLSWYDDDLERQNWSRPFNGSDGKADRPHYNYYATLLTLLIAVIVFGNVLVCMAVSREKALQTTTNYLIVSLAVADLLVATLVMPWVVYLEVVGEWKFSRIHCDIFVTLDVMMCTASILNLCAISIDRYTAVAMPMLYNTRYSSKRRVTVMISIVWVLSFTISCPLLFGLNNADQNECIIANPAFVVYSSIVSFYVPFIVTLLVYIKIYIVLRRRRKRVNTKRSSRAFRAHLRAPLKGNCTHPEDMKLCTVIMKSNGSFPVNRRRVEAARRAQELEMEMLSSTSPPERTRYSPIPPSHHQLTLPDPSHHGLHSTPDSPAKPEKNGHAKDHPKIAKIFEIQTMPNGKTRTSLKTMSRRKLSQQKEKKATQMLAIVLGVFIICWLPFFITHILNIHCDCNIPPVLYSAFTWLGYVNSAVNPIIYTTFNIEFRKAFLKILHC

Structure (SMILES) | DOPAC level (% of control) [1] [%] | Ki [2] [µM] | also measured
CCCN1CCN(c2ccccc2)CC1 | 181 | 0.47 | –
CCCN1CCC(c2ccccc2)CC1 | 131 | 0.17 | –
CCCN1CCC(c2ccc(Cl)cc2)CC1 | – | 0.9 | –
CCCN1CCC(c2ccc(OC)cc2)CC1 | – | 23 | –
CCCN1CCC(c2cccc(S(=O)(=O)C(C)C)c2)CC1 | 205 | – | –
CCCN1CCC(c2cccc(C)c2)CC1 | 115 | – | –
CCCN1CCC(c2cccc(S(=O)(=O)C(F)(F)F)c2)CC1 | 258 | – | –
CCCN1CCC(c2ccccc2OC)CC1 | – | 0.012 | Ki ([3]; read-out: Ki): 2.4 µM; Activity [4]: 277%
CCCN1CCC(c2ccccc2C(F)(F)F)CC1 | 254 | – | –
CCCN1CCN(c2ccccc2S(C)(=O)=O)CC1 | 283 | 0.58 | Ki ([3]; read-out: Ki): > 583 µM; Ki ([3]; read-out: pKi (converted)): > 631 µM
CCCN1CCC(c2ccccc2OS(=O)(=O)C(F)(F)F)CC1 | 270 | – | –
CCCN1CCC(c2cccc(OC)c2)CC1 | 140 | 1.5 | Ki ([3]; read-out: Ki): 18 µM
CCCN1CCC(c2cccc(C(F)(F)F)c2)CC1 | 260 | 0.18 | Ki ([3]; read-out: Ki): 128 µM
CCCN1CCC(c2cccc(C#N)c2)CC1 | 275 | – | –
CCCN1CCN(c2cccc(OS(=O)(=O)C(F)(F)F)c2)CC1 | 285 | – | –
CCCN1CCC(c2cccc(OS(=O)(=O)C(F)(F)F)c2)CC1 | 241 | – | –
CCCN1CCC(c2cccc(S(=O)(=O)C3CCCC3)c2)CC1 | 170 | 3.8 | Ki ([3]; read-out: Ki): > 583 µM; Ki ([3]; read-out: pKi (converted)): > 631 µM
CCCN1CCN(c2cccc(S(=O)(=O)c3ccccc3)c2)CC1 | 152 | – | –

Structure (SMILES) | DOPAC level (% of control) [1] [%] | Ki [2] [µM] | also measured
CCCN1CCN(c2cccc(C(C)=O)c2)CC1 | 221 | – | –
CCCN1CCC(c2cccc(OC(C)C)c2)CC1 | 112 | – | –
CCCN1CCC(c2cccc(N3CCOCC3)c2)CC1 | 105 | – | –
CCCN1CCN(c2cccc(OS(C)(=O)=O)c2)CC1 | – | – | Activity [5]: 254%
CCCN1CCC(c2cccc(OC(C)(C)C)c2)CC1 | 196 | – | –
CCCN1CCN(c2cccc(Cl)c2)CC1 | 250 | – | –
CCCN1CCN(c2ccccc2C#N)CC1 | – | – | Activity [4]: 313%
CCCN1CCN(c2cccc(O)c2)CC1 | – | – | Ki ([3]; read-out: Ki): > 583 µM; Ki ([3]; read-out: pKi (converted)): > 631 µM
CCCN1CCN(c2ccc(OC)cc2)CC1 | – | 6.4 | –
CCCN1CCN(c2cccc(OC)c2)CC1 | 255 | 0.3 | Ki ([3]; read-out: Ki): 16 µM
CCCN1CCN(c2ccccc2C)CC1 | 327 | – | –
CCCN1CCN(c2ccccc2Cl)CC1 | 368 | – | –
CCCN1CCN(c2cccc(C#N)c2)CC1 | 314 | 0.27 | Ki ([3]; read-out: Ki): > 583 µM; Ki ([3]; read-out: pKi (converted)): > 631 µM
CCCN1CCN(c2ccccc2O)CC1 | 270 | – | –
CCCN1CCN(c2cccc(C(F)(F)F)c2)CC1 | – | – | Activity [5]: 315%
CCCN1CCN(c2cccc(S(C)(=O)=O)c2)CC1 | – | – | Ki ([3]; read-out: Ki): 126 µM
CCCN1CCN(c2ccccc2OC)CC1 | 370 | 0.022 | Ki ([3]; read-out: Ki): > 583 µM; Ki ([3]; read-out: pKi (converted)): > 631 µM
